From PubChem BioAssay AID449762 (Southern Research Specialized Biocontainment Screening …, 2010)
Records with an inconclusive call do not appear.

Tested on: M. tuberculosis H37Rv growth inhibition, 7H9 media
Test: M. tuberculosis growth inhibition, HTS (AID 449762);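 also: bacterial growth assessed after seven days of incubation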
Conditions: for IC90: measured here: IC90 growth inhibition

Compound | IC50 | IC90
C=CCC1(CC=C)CCCN1C(=O)c1cc(COc2ccc(-n3cncn3)cc2)on1 | 41.8 µM | > 100 µM
CN(C)c1ccnc2c[cH-]cc12.[Fe].c1ccc(-[c-]2[c-](-c3ccccc3)[c-](-c3ccccc3)[c-](-c3ccccc3)[c-]2-c2ccccc2)cc1 (configuration not stated) | 13.7 µM | 17.4 µM
CC(C)C(=O)N1CCC2(CC1)Oc1ccc(Cl)cc1C(=O)C21CC(c2ccccc2)=NO1 (configuration not stated) | 67.8 µM | > 100 µM
O=[N+]([O-])c1ccc(CN2CCN(c3ccc(Cl)cc3)CC2)o1 | < 0.2 µM | < 0.2 µM
CNc1ccc2oc(C[C@H]3O[C@@]4(CC[C@H]3C)O[C@H]([C@H](C)C(=O)c3ccc[nH]3)[C@H](C)C[C@H]4C)nc2c1C(=O)O | 1.1 µM | 1.97 µM
Cc1nn(-c2ccccc2)c(N)c1N=Nc1ccc(Cl)cc1 | 27.3 µM | 41.5 µM
Cc1c(Cl)ccc2c1NC(=O)[C@]21N[C@@H](Cc2ccccc2)[C@H]2C(=O)N(c3ccc(F)cc3)C(=O)[C@H]21 | 23 µM | 26.1 µM
Cc1ccnc(NC(=O)c2cc3ccccc3o2)c1 | 43.9 µM | > 100 µM
Cc1cc(/C=N/n2cnnc2)c(C)n1-c1ccc(OCc2ccc(Cl)cc2Cl)cc1 | 7.25 µM | 15.8 µM
CCOC(=O)c1ccc(N=C2S/C(=C\c3cc(C)n(-c4cccnc4)c3C)C(=O)N2C)cc1 | 96.6 µM | > 100 µM
CCCn1nnc(NC(=O)COc2ccc(CC)cc2)n1 | 29.7 µM | > 100 µM
Cc1ccc(-c2cc(-c3ccccc3C)[nH]n2)c(O)c1 | 22.2 µM | > 100 µM
Cn1ncnc2c(=O)n(C)c(=O)nc1-2 | 1.66 µM | 2.62 µM
CCCCOc1ccc(C(=O)Oc2ccc(C)nc2)cc1 | 13.8 µM | 72.3 µM
CN1CC=C(/C=C/c2ccc(-c3ccccc3)cc2)CC1 | 20.1 µM | 26.9 µM
CN(CC(=O)Nc1ccc(F)c(F)c1F)c1cnccn1 | 6.08 µM | 12.8 µM
N#C/C(=N/Nc1ccc(OC(F)(F)F)cc1)C(N)=S | 2.14 µM | 3.43 µM
CCOC(=O)COc1cc([N+](=O)[O-])cc2cccnc12 | 15.2 µM | 34.6 µM
CCCOC(=O)c1ccc(-c2ccc(C=O)o2)cc1 | 0.82 µM | > 100 µM
COc1ccc(C(=O)/C=C/c2cc(OC)c(O)c(OC)c2)c(F)c1 | 34.6 µM | 67 µM
CCOC(=O)Oc1c(OC)cc(C(=O)O[C@@H]2C[C@@H]3CN4CCc5c([nH]c6cc(OC)ccc56)[C@H]4C[C@@H]3[C@H](C(=O)OC)[C@H]2OC)cc1OC | 19.7 µM | 27.3 µM
Cc1cccc(/C=c2\s/c(=C\C(=O)C(C)(C)C)[nH]c2=O)c1 | 5.66 µM | 23.6 µM

Compound | IC50 | IC90
NC(=O)c1cccc(-c2cc(Nc3ccc(OC(F)(F)F)cc3)ncn2)c1 | 8.46 µM | 18.4 µM
COc1ccc(NC(=O)ON=C2c3ccccc3-c3ccccc32)cc1 | – | > 100 µM
Clc1ccc(-c2[nH]ncc2N=Nc2ccccc2)cc1 | 31.7 µM | > 100 µM
Cc1ccc(F)cc1CNC(=O)c1cc(COc2ccc3ncccc3c2)on1 | 29.2 µM | > 100 µM
Cc1ccc(O)c(C(=O)CC(=O)c2ccccc2Cl)c1 | 10.7 µM | 40.1 µM
Cc1nc(NCCc2ccccc2)c2oc3ccccc3c2n1 | 6.49 µM | 14.2 µM
COc1ccc(NC(=O)CSC2=C(C#N)C(c3ccco3)C(C(=O)Nc3nc4ccccc4s3)=C(C)N2)cc1 (configuration not stated) | 5.57 µM | 7.26 µM
Cc1cccc(N(C(=O)c2nsc(Cl)c2Cl)C(C(=O)NC2CCCC2)c2ccc(O)cc2)c1C (configuration not stated) | 21.7 µM | 28.2 µM
Cc1ccc(Nc2nc(N)nc(CN3CCc4ccccc4C3)n2)cc1 | 2.2 µM | 8.89 µM
CC(NCCCOc1cccc2ccccc12)c1ccccc1 (configuration not stated) | 22.6 µM | 31.3 µM
C=CCOc1ccc(/C=C/C(=O)OCC(=O)NCC2CCCO2)cc1 (configuration not stated) | 98.7 µM | > 100 µM
CCCCNC(=S)N(C)/N=C/c1ccc2c(c1)OCO2 | 12.2 µM | 20.4 µM
Cc1cc(/C=C2\SC(=Nc3ccc(F)cc3)NC2=O)c(C)n1-c1ccc(S(N)(=O)=O)cc1 | 22.4 µM | 25.5 µM
CCCCn1cnc2cc(NCc3cccc(OC)c3O)ccc21 | 80.2 µM | > 100 µM
Brc1ccc2c(c1)C(OC1CN3CCC1CC3)c1ccccc1CS2 (configuration not stated) | 25.2 µM | 28.4 µM
CC1CCCN(Cc2c(O)ccc3c(=O)c(-c4nc5ccccc5s4)c(N)oc23)C1 (configuration not stated) | 9.7 µM | 12.7 µM
CCOC(=O)CNC(=S)n1cnc(N)n1 | 27.8 µM | 60.6 µM
CC(=O)Nc1ccc(N2C(C(C)=O)=NN(c3ccc(Cl)cc3)C2c2sccc2C)cc1 (configuration not stated) | 83.9 µM | 93.1 µM
O=C(Nc1nc2ccccc2[nH]1)C12CC3CC(CC(C3)C1)C2 | 10.3 µM | 34.5 µM
CC(C)(C)c1cc(-c2nc(N)nc(N)n2)c(O)c(C(C)(C)C)c1 | 75.9 µM | 88.9 µM
CCOc1ccc(-c2cnc(NCc3cccc4ccccc34)n2CCOC)cc1 | 5.56 µM | 8.14 µM
O=C(Nc1ccc(Oc2cccc(C(F)(F)F)c2)nc1)c1cccs1 | 39.6 µM | > 100 µM

Compound | IC50 | IC90
CC(C)NC(=O)c1sc(=S)n2c1[nH]c(=O)c1ccc(C(=O)NCCc3ccc(Cl)cc3)cc12 | 0.3 µM | 0.49 µM
c1ccc(CCNc2ncnc3c2cnn3-c2ccccc2)cc1 | 22.1 µM | > 50 µM
Clc1ccc(-c2cc3ccccc3nc2N2CCCC2)cc1 | 69.2 µM | > 100 µM
CCC1=C(OC(=O)N(CC)CC)N2C(=O)OC(=NCCc3c[nH]c4ccccc34)[C@]2(Cc2ccccc2)[C@H]2C1=CC[C@H]1C(=O)NC(=O)[C@H]12 | 30.7 µM | 44.8 µM
c1ccc(-c2c3ccccc3nc3[nH]c4ccccc4c23)cc1 | 63.1 µM | > 100 µM
Cn1c(NC(=S)Nc2ccccc2)nc2ccccc21 | 3.71 µM | 6.27 µM
Cc1c(CN(C)C)c2c(n1Cc1ccccc1)C(=O)c1ccc(Br)cc1-2 | 17.6 µM | 22 µM
CC(Oc1ccc2ccccc2c1)C(=O)NNC(=S)NC(=O)c1ccco1 (configuration not stated) | 6.06 µM | 45 µM
CN(C(=O)COC(=O)c1sc2ccccc2c1Cl)C1CCCCC1 | 4.8 µM | 15 µM
COc1ccc(Nc2nc(N)c([N+](=O)[O-])c(NC3CCCCC3)n2)cc1 | 9.76 µM | 18.8 µM
Cc1ccc(-n2cccc2C(=S)N=P(N(C)C)(N(C)C)N(C)C)cc1 | 18.4 µM | 25.5 µM
O=C(CSc1ccc(Cl)cc1)N1CCC(c2nc3ccccc3s2)CC1 | 85.9 µM | 92.9 µM
C=C1CCC[C@]2(C)C[C@H]3OC(=O)C(CNC(C)CCCC(C)C)[C@H]3CC12 (some centres not stated) | 22.4 µM | 24.2 µM
N/C(=N\OC(=O)Nc1ccc(Cl)c(Cl)c1)c1ncc(C(F)(F)F)cc1Cl | 41.9 µM | 45.8 µM
CCCCNC(=S)Nc1ccc2cn[nH]c2c1 | 11.2 µM | 21.3 µM
Cn1cnnc1SCc1ccc(-c2ccc(Br)cc2)o1 | 85.1 µM | > 100 µM
Cc1ccccc1-n1sc2cc(F)ccc2c1=O | 18.6 µM | 22.5 µM
CCCCCCCCn1c2c(c(=N)c3c1CCC3)CCCC2 | 19 µM | 26.4 µM
Cc1ccc(S(=O)(=O)NNC(=O)c2cc([N+](=O)[O-])c(C)c([N+](=O)[O-])c2)cc1 | 7.57 µM | 12.5 µM
N#Cc1c(SCC(N)=O)nsc1SCc1ccccc1Cl | 12.6 µM | 34.7 µM
O=C(Sc1nnc(-c2ccccc2)o1)N1c2ccccc2Sc2ccccc21 | – | > 100 µM
CCC(C)NC(=O)c1cn(CC)c2cc(N3CCN(C(=O)c4ccco4)CC3)c(F)cc2c1=O (configuration not stated) | 9.33 µM | 30.9 µM

Compound | IC50 | IC90
O=C1C(=O)N(c2ccccc2)c2ccccc21 | 8.23 µM | 17.7 µM
Cc1nn(-c2nc3ccccc3[nH]2)c(N)c1-c1ccc(Cl)cc1 | 0.21 µM | 2.6 µM
Cc1[nH]c2ccccc2c1/C=N/Nc1nc(Nc2ccccc2)nc(N2CCOCC2)n1 | 2.88 µM | 10 µM
Cc1ccc(OCCN2CCN(c3ncnc4sc(C)c(C)c34)CC2)cc1 | 93.7 µM | > 100 µM
C/C(Cl)=C\COc1cc(C)nc2c(Br)cccc12 | 19.7 µM | 25.1 µM
CC1CCc2c(sc3ncnc(NCCCOC(C)C)c23)C1 (configuration not stated) | 53.2 µM | 67.1 µM
CCOC(=O)c1cc(-c2ccccc2)nc2c1c(C)nn2-c1ccccn1 | 2.97 µM | 27.2 µM
CCOC(=O)N1CCC(n2c(SCC(=O)OCc3ccccc3)nc3ccsc3c2=O)CC1 | 27.1 µM | > 100 µM
CC1CCCC(NC(=O)NC(=O)CCl)C1C (configuration not stated) | 3.25 µM | 7.38 µM
Cc1ccc(C(=O)O/N=C(\N)c2ccc(Br)cc2)cc1C | 98.9 µM | > 100 µM
CNc1nc(-c2ccccn2)nnc1-c1ccccc1 | 12.1 µM | 19 µM
CCOc1ccc(-c2nn3c(-c4ccccc4)nnc3s2)cc1 | 29.2 µM | > 100 µM
Cc1cc(C)nc(-n2nc(C)cc2NC(=O)CN2CCC(C)CC2)n1 | 6.86 µM | 16.9 µM
COc1cc(N)c(Cl)cc1C(=O)N[C@H]1CCN(CCCOc2ccc(F)cc2)C[C@H]1OC | 43.8 µM | 55.2 µM
Clc1ccc(SCc2cc(N3CCOCC3)nc(-c3ccccn3)n2)cc1 | 0.92 µM | 6.27 µM
CCOc1ccc(N=CC2=C(O)CC(c3ccco3)CC2=O)cc1 (configuration not stated) | 80.4 µM | > 100 µM
CC(C)(C)NC(=O)C(c1c[nH]c2ccccc12)N(C(=O)Cn1nnc(-c2ccc(F)cc2)n1)c1cccc(O)c1 (configuration not stated) | 64 µM | > 100 µM
CCCN(CC1CC1)C(=O)COC(=O)c1ccc2c(c1)C(=O)N(c1ccc(OCC)cc1)C2=O | 35.2 µM | > 100 µM
CCOc1ccc(OCCSc2ccc(S(=O)(=O)N3CCN(C)CC3)cn2)cc1 | 22.1 µM | 28.6 µM
CC(C)C1N=C(c2ccc3c(c2)OCO3)CC(c2ccccc2O)N1 (configuration not stated) | 20.8 µM | 30.4 µM
CCCCCC(=O)N/N=C(\C)c1ccccn1 | 13.9 µM | 33.1 µM
